“And” between values parts separate entries of the source, which are not always exact repeats. Equal values may be shown once. One block for each compound: values may come before it.
What was measured:
[1] = tested on: VEGF-induced angiogenesis on the CAM; experiment: Gelatin sponge chick chorioallantoic membrane (CAM) assay; settings: for Angiogenesis - Vessel thickness score, Mean: score 0-3; for Angiogenesis - Vessel thickness score, individual egg: score 0-3, one value per egg
[2] = target: T1, VEGFR2 (Homo sapiens, UniProt P35968); experiment: HotSpot kinase screen; type: biochemical; settings: 10μM ATP
T1 construct: purchased Millipore Corporation (Dundee, Scotland) or Reaction Biology Corporation (contract assay)

[3] = target: T2, FGFR2 (Homo sapiens, UniProt P21802); experiment: HotSpot kinase screen; type: biochemical; settings: 10μM ATP
T2 construct: purchased Reaction Biology Corporation (contract assay)
Protocol: (§1) Measurement of kinase activity was performed by Reaction Biology Corporation (Reaction Biology Corporation, Malvern, PA), using the HotSpot™ assay. The screen focused on RTKs reported in the literature to play a major role in the regulation of angiogenesis (VEGFR1, VEGFR2, and VEGFR3; fibroblast growth factor receptor [FGFR] 1, 2, and 3; and platelet-derived growth factor receptor beta [PDGFRβ]) as well as an RTK essential for maintaining blood vessel stability (TIE2). For the profiling, specific kinase/substrate pairs and required cofactors were prepared in a reaction buffer (20mM Hepes [pH 7.5], 10mM MgCl2, 1mM EGTA, 0.02% Brij35, 0.02 mg/mL BSA, 0.1mM Na3VO4, 2mM DTT, 1% dimethyl sulfoxide [DMSO]). TKI compounds were diluted to 10μM and 1μM concentrations for the screens and after addition to the reaction buffer incubated for 20 minutes, followed by the addition of a mixture of ATP (Sigma, St. Louis, MO) and ^33P-ATP (Perkin Elmer, Waltham, MA) to a final ATP concentration of 10μM. Reactions were carried out at room temperature for 2 hours, followed by spotting of the reactions onto P81 ion exchange filter paper (Whatman Inc., Piscataway, NJ). Unbound phosphate was removed by extensive washing of the filters. […] Kinome TREEspot images representing levels of inhibition were prepared using Kinome Mapper (https://www.reactionbiology.com/resources/tools/kinase-mapper).

[4] = target: T3, VEGFR3 (Homo sapiens, UniProt P35916); experiment: HotSpot kinase screen; type: biochemical; settings: 10μM ATP
T3 construct: purchased Millipore Corporation (Dundee, Scotland) or Reaction Biology Corporation (contract assay)
Protocol: as §1

[5] = target: T1, VEGFR2; experiment: Ten-dose IC50 measurement; type: biochemical; settings: 10μM ATP
[6] = target: T3, VEGFR3; experiment: Ten-dose IC50 measurement; type: biochemical; settings: 10μM ATP
[7] = tested on: VEGF-A–induced sprouting of HUVECs; experiment: HUVEC spheroid sprouting assay; type: cell-based, human; settings: for cumulative sprout length per spheroid (CSL), mean: 25 ng/mL VEGF-165, 24 hours
Protocol: The three TKI compounds were tested by Reaction Biology Europe (Freiburg, Germany) in the spheroid-based cellular angiogenesis assay to determine their effect on VEGF-A–induced sprouting of HUVECs. Primary HUVECs from pooled donors at passage 3 to 4 (PromoCell, Heidelberg, Germany) were grown in endothelial cell growth and basal medium (ECGM/ECBM, PromoCell). Test compounds were prepared as 100-fold concentrated stock solutions in DMSO and pre-diluted in basal medium. HUVECs were stimulated using 25 ng/mL VEGF-165 (Reaction Biology Europe, Freiburg, Germany) pre-diluted in basal medium.
Spheroids were prepared as described by pipetting 400 HUVECs in a hanging drop on plastic dishes to allow overnight spheroid aggregation. Fifty HUVEC spheroids were seeded in 0.9 mL of a collagen gel and pipetted into individual wells of a 24-well plate to allow polymerization. Test compounds and VEGF-165 were added after 30 minutes by pipetting 100 μL of a ten-fold concentrated solution onto the polymerized gel. Plates were incubated at 37°C for 24 hours, and cells were fixed by adding 4% paraformaldehyde (Roth, Karlsruhe, Germany). Sprouting intensity of HUVEC spheroids treated with the test samples was quantitated using an image analysis system to determine the cumulative sprout length (CSL) per spheroid. Images of single spheroids were captured using an inverted microscope and the digital imaging software NIS-Elements BR 3.0 (Nikon). Spheroid pictures were uploaded to Wimasis (www.wimasis.com) for image analysis. The CSL of each spheroid was determined using the imaging analysis tool WimSprout. The mean CSL of ten randomly selected spheroids was analyzed as an individual data point.

[8] = target: T4, VEGFR1 (Homo sapiens, UniProt P17948)
[9] = target: T5, TIE2 (Homo sapiens, UniProt Q02763)
[10] = target: T4, VEGFR1; experiment: Ten-dose IC50 measurement; settings: 10μM ATP
[11] = target: T5, TIE2; experiment: Ten-dose IC50 measurement; settings: 10μM ATP
[12] = target: T5, TIE2; experiment: HotSpot kinase screen; type: biochemical; parameters: purchased Reaction Biology Corporation (contract assay); settings: 10μM ATP
[13] = target: T4, VEGFR1; experiment: HotSpot kinase screen; type: biochemical; parameters: purchased Millipore Corporation (Dundee, Scotland) or Reaction Biology Corporation (contract assay); settings: 10μM ATP
Protocol: as §1

[14] = 0.5 mg/kg bevacizumab (20.15μM)

T5 sequence (Q02763 23-1124): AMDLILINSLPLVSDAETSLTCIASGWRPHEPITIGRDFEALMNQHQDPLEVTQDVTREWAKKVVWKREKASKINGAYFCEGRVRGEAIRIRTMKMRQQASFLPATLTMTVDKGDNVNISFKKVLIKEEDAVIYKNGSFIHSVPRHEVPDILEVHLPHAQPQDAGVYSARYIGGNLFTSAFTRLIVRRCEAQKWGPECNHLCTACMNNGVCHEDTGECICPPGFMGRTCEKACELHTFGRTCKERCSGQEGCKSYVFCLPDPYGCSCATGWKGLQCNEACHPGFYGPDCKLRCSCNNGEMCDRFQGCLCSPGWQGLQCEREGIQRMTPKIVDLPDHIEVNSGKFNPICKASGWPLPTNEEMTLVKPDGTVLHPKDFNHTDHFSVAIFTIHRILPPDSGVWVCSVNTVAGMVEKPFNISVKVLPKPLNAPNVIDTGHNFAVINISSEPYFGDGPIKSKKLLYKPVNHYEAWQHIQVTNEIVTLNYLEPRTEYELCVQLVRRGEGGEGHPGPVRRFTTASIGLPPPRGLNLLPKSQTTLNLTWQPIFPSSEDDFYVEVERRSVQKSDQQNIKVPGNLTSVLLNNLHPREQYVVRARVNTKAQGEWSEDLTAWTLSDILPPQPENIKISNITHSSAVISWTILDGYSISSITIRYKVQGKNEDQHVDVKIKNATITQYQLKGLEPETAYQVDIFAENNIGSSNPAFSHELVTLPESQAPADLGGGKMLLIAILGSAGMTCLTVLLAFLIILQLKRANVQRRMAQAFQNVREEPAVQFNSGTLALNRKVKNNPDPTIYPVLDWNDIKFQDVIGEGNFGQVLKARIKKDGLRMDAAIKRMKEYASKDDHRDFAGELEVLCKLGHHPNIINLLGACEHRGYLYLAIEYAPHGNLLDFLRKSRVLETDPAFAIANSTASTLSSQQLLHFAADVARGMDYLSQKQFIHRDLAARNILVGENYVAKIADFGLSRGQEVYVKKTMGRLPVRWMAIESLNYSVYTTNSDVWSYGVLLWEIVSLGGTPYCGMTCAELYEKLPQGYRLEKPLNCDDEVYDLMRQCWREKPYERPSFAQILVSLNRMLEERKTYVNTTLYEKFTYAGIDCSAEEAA
T3 sequence (P35916 25-1363): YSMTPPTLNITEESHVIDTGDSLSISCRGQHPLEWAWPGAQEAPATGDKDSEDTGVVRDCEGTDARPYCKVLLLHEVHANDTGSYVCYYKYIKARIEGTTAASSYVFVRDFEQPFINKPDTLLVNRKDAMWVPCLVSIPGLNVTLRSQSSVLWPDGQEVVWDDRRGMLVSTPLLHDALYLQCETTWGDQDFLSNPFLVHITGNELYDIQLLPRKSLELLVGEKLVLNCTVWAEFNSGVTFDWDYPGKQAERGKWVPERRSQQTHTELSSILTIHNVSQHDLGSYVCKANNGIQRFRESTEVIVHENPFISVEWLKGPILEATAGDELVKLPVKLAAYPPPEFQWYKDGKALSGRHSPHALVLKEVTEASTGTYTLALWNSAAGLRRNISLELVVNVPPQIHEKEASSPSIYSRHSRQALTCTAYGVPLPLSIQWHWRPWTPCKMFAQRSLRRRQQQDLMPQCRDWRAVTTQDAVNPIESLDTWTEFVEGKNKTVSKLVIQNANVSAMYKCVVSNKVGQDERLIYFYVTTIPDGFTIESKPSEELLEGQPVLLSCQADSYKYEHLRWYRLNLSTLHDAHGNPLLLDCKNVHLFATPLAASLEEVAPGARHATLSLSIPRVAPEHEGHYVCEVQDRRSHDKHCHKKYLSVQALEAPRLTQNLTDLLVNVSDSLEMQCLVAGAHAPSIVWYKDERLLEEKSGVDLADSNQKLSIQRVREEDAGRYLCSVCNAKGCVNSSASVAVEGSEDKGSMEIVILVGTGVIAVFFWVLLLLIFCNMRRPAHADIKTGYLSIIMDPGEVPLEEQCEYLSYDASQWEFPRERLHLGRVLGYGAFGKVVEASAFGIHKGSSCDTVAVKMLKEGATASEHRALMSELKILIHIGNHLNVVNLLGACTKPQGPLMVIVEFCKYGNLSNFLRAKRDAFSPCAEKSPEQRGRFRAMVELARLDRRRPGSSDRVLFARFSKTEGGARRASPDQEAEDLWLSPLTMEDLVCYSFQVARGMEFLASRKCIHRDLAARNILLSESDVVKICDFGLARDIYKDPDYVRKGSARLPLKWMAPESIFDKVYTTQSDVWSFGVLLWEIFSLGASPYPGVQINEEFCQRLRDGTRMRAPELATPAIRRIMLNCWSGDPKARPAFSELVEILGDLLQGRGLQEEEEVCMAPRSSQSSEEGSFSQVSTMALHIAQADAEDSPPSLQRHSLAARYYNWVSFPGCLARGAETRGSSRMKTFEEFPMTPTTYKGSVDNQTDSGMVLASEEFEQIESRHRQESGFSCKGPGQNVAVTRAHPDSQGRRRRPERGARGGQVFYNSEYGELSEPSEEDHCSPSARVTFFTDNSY
T1 sequence (P35968 20-1356): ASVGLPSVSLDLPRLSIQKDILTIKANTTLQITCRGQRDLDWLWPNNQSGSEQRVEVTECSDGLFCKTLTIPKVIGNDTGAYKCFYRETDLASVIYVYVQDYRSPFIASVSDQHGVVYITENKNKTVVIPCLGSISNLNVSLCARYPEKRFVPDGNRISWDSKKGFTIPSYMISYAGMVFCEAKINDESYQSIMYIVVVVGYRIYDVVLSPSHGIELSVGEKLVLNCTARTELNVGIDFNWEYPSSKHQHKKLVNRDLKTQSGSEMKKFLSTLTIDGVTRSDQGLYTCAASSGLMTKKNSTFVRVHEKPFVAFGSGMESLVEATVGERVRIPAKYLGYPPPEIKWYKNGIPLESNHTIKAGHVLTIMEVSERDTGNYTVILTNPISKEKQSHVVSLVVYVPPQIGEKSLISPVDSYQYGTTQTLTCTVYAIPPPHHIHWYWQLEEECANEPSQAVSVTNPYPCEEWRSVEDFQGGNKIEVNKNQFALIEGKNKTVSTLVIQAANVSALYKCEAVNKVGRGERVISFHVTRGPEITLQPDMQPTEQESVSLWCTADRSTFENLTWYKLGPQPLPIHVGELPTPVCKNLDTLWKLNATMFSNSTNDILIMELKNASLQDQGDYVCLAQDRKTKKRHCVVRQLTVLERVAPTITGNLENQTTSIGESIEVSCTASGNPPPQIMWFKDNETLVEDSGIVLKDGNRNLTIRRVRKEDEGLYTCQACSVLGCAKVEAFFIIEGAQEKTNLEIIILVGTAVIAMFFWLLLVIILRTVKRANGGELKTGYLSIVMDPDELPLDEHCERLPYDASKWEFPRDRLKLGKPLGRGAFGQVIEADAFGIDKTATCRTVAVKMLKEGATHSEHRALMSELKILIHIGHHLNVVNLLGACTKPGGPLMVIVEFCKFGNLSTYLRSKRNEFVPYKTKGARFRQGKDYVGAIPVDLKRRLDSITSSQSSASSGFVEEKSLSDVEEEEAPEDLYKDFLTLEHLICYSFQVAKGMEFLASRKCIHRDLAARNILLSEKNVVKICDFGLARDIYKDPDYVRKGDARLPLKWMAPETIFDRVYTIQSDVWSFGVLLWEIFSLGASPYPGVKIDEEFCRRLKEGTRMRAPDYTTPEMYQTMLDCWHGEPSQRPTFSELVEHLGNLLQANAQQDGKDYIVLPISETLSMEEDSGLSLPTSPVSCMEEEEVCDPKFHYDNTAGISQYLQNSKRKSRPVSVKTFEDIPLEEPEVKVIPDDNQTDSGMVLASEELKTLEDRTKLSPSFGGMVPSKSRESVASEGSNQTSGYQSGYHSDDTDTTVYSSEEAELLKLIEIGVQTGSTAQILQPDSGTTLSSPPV
T4 sequence (P17948 27-1338): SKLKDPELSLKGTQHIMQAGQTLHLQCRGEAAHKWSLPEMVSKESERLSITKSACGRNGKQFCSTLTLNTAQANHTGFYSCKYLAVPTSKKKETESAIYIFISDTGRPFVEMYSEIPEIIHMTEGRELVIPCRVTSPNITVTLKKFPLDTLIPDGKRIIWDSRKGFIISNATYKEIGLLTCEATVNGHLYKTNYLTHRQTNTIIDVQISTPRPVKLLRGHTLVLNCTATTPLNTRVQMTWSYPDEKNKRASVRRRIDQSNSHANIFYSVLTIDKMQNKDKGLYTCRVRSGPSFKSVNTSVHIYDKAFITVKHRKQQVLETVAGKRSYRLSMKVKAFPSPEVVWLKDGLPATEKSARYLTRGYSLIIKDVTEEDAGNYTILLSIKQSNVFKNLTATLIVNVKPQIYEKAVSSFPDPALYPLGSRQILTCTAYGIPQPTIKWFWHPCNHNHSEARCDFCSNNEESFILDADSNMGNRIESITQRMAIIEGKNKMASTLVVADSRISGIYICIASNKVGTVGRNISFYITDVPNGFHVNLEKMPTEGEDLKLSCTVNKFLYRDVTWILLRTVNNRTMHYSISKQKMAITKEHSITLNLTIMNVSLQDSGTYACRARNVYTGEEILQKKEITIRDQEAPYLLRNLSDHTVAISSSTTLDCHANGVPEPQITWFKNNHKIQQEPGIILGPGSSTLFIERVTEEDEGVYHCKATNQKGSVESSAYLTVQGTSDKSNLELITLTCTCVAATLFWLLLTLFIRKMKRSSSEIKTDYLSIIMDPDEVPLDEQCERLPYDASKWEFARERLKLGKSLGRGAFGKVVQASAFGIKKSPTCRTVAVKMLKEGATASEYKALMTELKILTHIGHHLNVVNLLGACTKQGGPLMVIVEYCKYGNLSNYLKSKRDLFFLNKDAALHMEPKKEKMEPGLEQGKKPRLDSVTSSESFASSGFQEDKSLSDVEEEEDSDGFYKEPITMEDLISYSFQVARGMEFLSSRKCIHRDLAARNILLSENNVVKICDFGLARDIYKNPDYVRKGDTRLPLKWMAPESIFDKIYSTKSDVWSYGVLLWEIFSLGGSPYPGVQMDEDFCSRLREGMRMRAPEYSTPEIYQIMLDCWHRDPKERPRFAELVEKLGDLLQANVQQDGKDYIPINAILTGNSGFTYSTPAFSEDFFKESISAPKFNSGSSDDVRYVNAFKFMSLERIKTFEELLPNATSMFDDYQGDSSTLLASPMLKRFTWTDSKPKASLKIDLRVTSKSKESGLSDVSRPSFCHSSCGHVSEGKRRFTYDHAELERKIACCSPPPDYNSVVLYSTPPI

Compound: Bevacizumab: known anti-VEGF antibody, reference compound (positive control) in the CAM assay
Angiogenesis - Vessel number, Mean [1, 14]: 11.4
Angiogenesis - Vessel number, individual egg ([1]; 0.5 mg/kg bevacizumab (20.15μM), one value per egg): 9.33 and 9.67
vessel reduction compared to the negative control ([1]; 0.5 mg/kg bevacizumab (20.15μM), p = 0.05): 18%
Angiogenesis - Vessel thickness score, Mean [1, 14]: 0.8
Angiogenesis - Vessel thickness score, individual egg [1, 14]: 1.33 and 0.33 and 1.67 and 0 and 1

Avg % Inhibition VEGFR2 ([2]; 1uM TKI): 100%
Avg % Inhibition VEGFR2 ([2]; 10uM TKI): 90.96%
Avg % Inhibition FGFR2 ([3]; 1uM TKI): 93.95%
Avg % Inhibition FGFR2 ([3]; 10uM TKI): 98.81%
Avg % Inhibition VEGFR3 ([4]; 1uM TKI): 97.27%
Avg % Inhibition VEGFR3 ([4]; 10uM TKI): 99.21%
%Activity VEGFR2 ([5]; 1.00E-05 M TKI): 7.43%
%Activity VEGFR2 ([5]; 1.11E-06 M TKI): 4.53%
%Activity VEGFR2 ([5]; 1.23E-07 M TKI): 7.10%
%Activity VEGFR2 ([5]; 1.37E-08 M TKI): 13.24%
%Activity VEGFR2 ([5]; 1.52E-09 M TKI): 62.16%
%Activity VEGFR2 ([5]; 3.33E-06 M TKI): 6.81%
%Activity VEGFR2 ([5]; 3.70E-07 M TKI): 7.21%
%Activity VEGFR2 ([5]; 4.12E-08 M TKI): 8.44%
%Activity VEGFR2 ([5]; 4.57E-09 M TKI): 25.12%
%Activity VEGFR2 ([5]; 5.08E-10 M TKI): 84.02%
HillSlope VEGFR2 ([5]; IC50 curve fit): -1.18
%Activity VEGFR3 ([6]; 1.00E-05 M TKI): 2.02%
%Activity VEGFR3 ([6]; 1.11E-06 M TKI): 2.44%
%Activity VEGFR3 ([6]; 1.37E-08 M TKI): 28.96%
%Activity VEGFR3 ([6]; 1.52E-09 M TKI): 56.16%
%Activity VEGFR3 ([6]; 3.33E-06 M TKI): 1.23%
%Activity VEGFR3 ([6]; 3.70E-07 M TKI): 5.72%
%Activity VEGFR3 ([6]; 4.57E-09 M TKI): 40.16%
%Activity VEGFR3 ([6]; 5.08E-10 M TKI): 63.17%
activity [8]: 5.07%
activity [9]: 60.1%
%Activity VEGFR1 ([10]; 1.00E-05 M TKI): -0.87%
%Activity VEGFR1 ([10]; 1.11E-06 M TKI): -0.31%
%Activity VEGFR1 ([10]; 1.37E-08 M TKI): 18.99%
%Activity VEGFR1 ([10]; 1.52E-09 M TKI): 42.18%
%Activity VEGFR1 ([10]; 3.33E-06 M TKI): -0.89%
%Activity VEGFR1 ([10]; 4.12E-08 M TKI): 9.96%
%Activity VEGFR1 ([10]; 4.57E-09 M TKI): 22.02%
%Activity VEGFR1 ([10]; 5.08E-10 M TKI): 59.50%
%Activity TIE2 ([11]; 1.00E-05 M TKI): 10.50%
%Activity TIE2 ([11]; 1.11E-06 M TKI): 16.32%
%Activity TIE2 ([11]; 1.37E-08 M TKI): 87.12%
%Activity TIE2 ([11]; 1.52E-09 M TKI): 98.75%
%Activity TIE2 ([11]; 3.33E-06 M TKI): 7.06%
%Activity TIE2 ([11]; 3.70E-07 M TKI): 38.01%
%Activity TIE2 ([11]; 4.12E-08 M TKI): 78.65%
%Activity TIE2 ([11]; 4.57E-09 M TKI): 95.05%
%Activity TIE2 ([11]; 5.08E-10 M TKI): 95.58%
Avg % Inhibition TIE2 ([12]; 1uM TKI): 81% and 81.47%
Avg % Inhibition TIE2 ([12]; 10uM TKI): 89% and 89.11%
Avg % Inhibition TIE2 ([12]; 10uM TKI, listed as axitinib): up to 89%
Avg % Inhibition VEGFR1 ([13]; 1uM TKI): 100%
Avg % Inhibition VEGFR1 ([13]; 10uM TKI): 97.53%
Compound: CNC(=O)c1ccccc1Sc1ccc2c(/C=C/c3ccccn3)n[nH]c2c1 [Axitinib]
cumulative sprout length per spheroid (CSL), mean ([7]; 1.00E-05 M TKI): 259
cumulative sprout length per spheroid (CSL), mean ([7]; 1.00E-06 M TKI): 441
cumulative sprout length per spheroid (CSL), mean ([7]; 1.00E-07 M TKI): 459
cumulative sprout length per spheroid (CSL), mean ([7]; 3.00E-06 M TKI): 354
cumulative sprout length per spheroid (CSL), mean ([7]; 3.00E-07 M TKI): 373
cumulative sprout length per spheroid (CSL), mean ([7]; 3.00E-08 M TKI): 379
vessel sprouting (representative spheroid images) ([7]; highest test concentration of 1×10^–5M): zero vessel sprouting
Angiogenesis - Vessel number, Mean ([1]; TKI at 200 x VEGFR2 IC50): 11.1
Angiogenesis - Vessel number, individual egg ([1]; TKI at 200 x VEGFR2 IC50, one value per egg): 9.33 and 12.67 and 12 and 10.33
reduction of the number of blood vessels perfusing the sponges vs negative control ([1]; TKI at VEGFR2 IC50 dose): 24.6%
Angiogenesis - Vessel thickness score, Mean ([1]; TKI at VEGFR2 IC50 dose): 0.9
Angiogenesis - Vessel thickness score, individual egg ([1]; TKI at VEGFR2 IC50 dose): 0.33 and 1.33 and 0 and 1.67
